Measured values reported in PubChem BioAssay AID256 (DTP/NCI, 2004).
Several values for one entry are separate records, joined by “and”; a condition that tells them apart may be missing. Equal entries are not always repeated. Toxic doses and inconclusive results are not listed.

Test system: CD2F1 mice, L1210 leukemia ip, survival T/C
Experiment: NCI In Vivo Anticancer Drug Screen. Data for tumor model L1210 Leukemia (intraperitoneal) in CD2F1 (CDF1) mice
Settings: higher = longer survival
How it was run: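 Mice carrying a transplanted tumor received test compound or vehicle alone. The value is the measurement in the treated group divided by that in the vehicle-treated control group.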

[1] = endpoint: mean survival time, dose: 100.0 mg/kg/injection, schedule: Q04DX003 (ip), vehicle: saline with Tween-80
[2] = endpoint: mean survival time, dose: 200.0 mg/kg/injection, schedule: Q04DX003 (ip), vehicle: saline with Tween-80
[3] = endpoint: mean survival time, dose: 400.0 mg/kg/injection, schedule: Q04DX003 (ip), vehicle: saline with Tween-80
[4] = endpoint: mean survival time, dose: 100.0 mg/kg/injection, schedule: Q01DX009 (ip), vehicle: saline
[5] = endpoint: mean survival time, dose: 200.0 mg/kg/injection, schedule: Q01DX009 (ip), vehicle: saline
[6] = endpoint: mean survival time, dose: 25.0 mg/kg/injection, schedule: Q01DX009 (ip), vehicle: saline
[7] = endpoint: mean survival time, dose: 100.0 mg/kg/injection, schedule: Q04DX003 (ip), vehicle: saline

With CC1OC(Sc2ncnc3nc[nH]c23)C(O)C(O)C1O (configuration not stated) the T/C (endpoint: median survival time, dose: 12.5 mg/kg/injection, schedule: Q01DX005 (ip), vehicle: saline with Tween-80) was 105 % of control, the T/C (endpoint: median survival time, dose: 25.0 mg/kg/injection, schedule: Q01DX005 (ip), vehicle: saline with Tween-80) was 107 % of control and the T/C (endpoint: median survival time, dose: 50.0 mg/kg/injection, schedule: Q01DX005 (ip), vehicle: saline with Tween-80) was 103 % of control and 109 % of control. The T/C (endpoint: median survival time, dose: 100.0 mg/kg/injection, schedule: Q01DX005 (ip), vehicle: saline with Tween-80) was 122 % of control, the T/C (endpoint: median survival time, dose: 200.0 mg/kg/injection, schedule: Q01DX005 (ip), vehicle: saline with Tween-80) was 150 % of control and 151 % of control and the T/C (endpoint: median survival time, dose: 400.0 mg/kg/injection, schedule: Q01DX005 (ip), vehicle: saline with Tween-80) was 170 % of control.
For CCC(NC(N)=O)C(CC)NC(N)=O (configuration not stated), the T/C (endpoint: median survival time, dose: 12.5 mg/kg/injection, schedule: Q01DX009 (ip), vehicle: saline with Tween-80) was 97 % of control, the T/C (endpoint: median survival time, dose: 25.0 mg/kg/injection, schedule: Q01DX009 (ip), vehicle: saline with Tween-80) was 96 % of control and the T/C (endpoint: median survival time, dose: 50.0 mg/kg/injection, schedule: Q01DX009 (ip), vehicle: saline with Tween-80) was 90 % of control.
For Cc1ccc(NC(=O)c2ccccc2Cl)cc1C, the T/C [1] was 97 % of control, the T/C [2] was 103 % of control and the T/C [3] was 93 % of control.
In the case of CC(C)(C)NC(=S)Nc1ccccc1, the T/C (endpoint: mean survival time, dose: 50.0 mg/kg/injection, schedule: Q04DX003 (ip), vehicle: saline with Tween-80) is reported as 100 % of control, the T/C [1] is reported as 94 % of control and the T/C [2] is reported as 91 % of control.
CCCCCOC(=O)Nc1cccc(O)c1 was tested, and the T/C [1] was 95 % of control and the T/C [2] was 94 % of control.
For OC1C(O)C(O)C(O)C(O)C1O (configuration not stated), the T/C [4] was 104 % of control, the T/C [5] was 94 % of control and the T/C (endpoint: mean survival time, dose: 400.0 mg/kg/injection, schedule: Q01DX009 (ip), vehicle: saline) was 94 % of control.
With Clc1ccc(CC[PH+]2CC=CC2)cc1.Clc1ccc(CC[PH+]2CC=CC2)cc1.[Cl][Ni][Cl] the T/C (endpoint: mean survival time, dose: 12.5 mg/kg/injection, schedule: Q01DX009 (ip), vehicle: DMSO) was 101 % of control, the T/C (endpoint: mean survival time, dose: 25.0 mg/kg/injection, schedule: Q01DX009 (ip), vehicle: DMSO) was 101 % of control and the T/C (endpoint: mean survival time, dose: 25.0 mg/kg/injection, schedule: Q04DX002 (ip), vehicle: saline with Tween-80) was 91 % of control. The T/C (endpoint: mean survival time, dose: 50.0 mg/kg/injection, schedule: Q04DX002 (ip), vehicle: saline with Tween-80) was 95 % of control.
In the case of Cc1ccc(Nc2c3ccccc3nc3ccccc23)cc1, the T/C (endpoint: mean survival time, dose: 37.5 mg/kg/injection, schedule: Q04DX003 (ip), vehicle: saline with Tween-80) is reported as 101 % of control, the T/C (endpoint: mean survival time, dose: 40.0 mg/kg/injection, schedule: Q04DX003 (ip), vehicle: other) is reported as 120 % of control and the T/C (endpoint: mean survival time, dose: 75.0 mg/kg/injection, schedule: Q04DX003 (ip), vehicle: saline with Tween-80) is reported as 102 % of control. The T/C (endpoint: mean survival time, dose: 150.0 mg/kg/injection, schedule: Q04DX003 (ip), vehicle: other) was 160 % of control.
For O=C(Nc1ccc(Cl)c(Cl)c1)Nc1ccc(Oc2ccc(Cl)cc2Cl)cc1S(=O)(=O)O, the T/C (endpoint: mean survival time, dose: 100.0 mg/kg/injection, schedule: Q01DX001 (ip), vehicle: acetone) was 102 % of control, the T/C (endpoint: mean survival time, dose: 200.0 mg/kg/injection, schedule: Q01DX001 (ip), vehicle: acetone) was 91 % of control and the T/C (endpoint: mean survival time, dose: 400.0 mg/kg/injection, schedule: Q01DX001 (ip), vehicle: acetone) was 94 % of control.
For CCCCCCCC(=O)[O][Hg][CH2]C1COC([CH2][Hg][O]C(=O)CCCCCCC)CO1 (configuration not stated), the T/C (endpoint: mean survival time, dose: 6.25 mg/kg/injection, schedule: Q01DX009 (ip), vehicle: saline with Tween-80) was 106 % of control and the T/C (endpoint: mean survival time, dose: 12.5 mg/kg/injection, schedule: Q01DX009 (ip), vehicle: saline with Tween-80) was 96 % of control.
With CC(C)CCNc1ncnc2c1cnn2C the T/C [6] was 97 % of control, the T/C (endpoint: mean survival time, dose: 50.0 mg/kg/injection, schedule: Q01DX009 (ip), vehicle: saline) was 108 % of control and the T/C [4] was 86 % of control. For the same compound, the T/C [7] was 116 % of control.
In the case of Clc1c(Cl)c(Cl)c(C(c2c(Cl)c(Cl)c(Cl)c(Cl)c2Cl)c2c(Cl)c(Cl)c(Cl)c(Cl)c2Cl)c(Cl)c1Cl, the T/C [1] is reported as 98 % of control, the T/C [2] is reported as 98 % of control and the T/C [3] is reported as 110 % of control.
For O=C1C=CC(O)CCC1 (configuration not stated) (tested in a mixture with another compound), the T/C [1] was 101 % of control, the T/C [2] was 101 % of control and the T/C [3] was 97 % of control.
In the case of CN(C)c1ccc([N+](=O)[O-])cc1[N+](=O)[O-], the T/C (endpoint: mean survival time, dose: 62.5 mg/kg/injection, schedule: Q01DX001 (ip), vehicle: Klucel (hydroxypropylcellulose) (HPC)) is reported as 94 % of control, the T/C (endpoint: mean survival time, dose: 125.0 mg/kg/injection, schedule: Q01DX001 (ip), vehicle: Klucel (hydroxypropylcellulose) (HPC)) is reported as 94 % of control and the T/C (endpoint: mean survival time, dose: 250.0 mg/kg/injection, schedule: Q01DX001 (ip), vehicle: Klucel (hydroxypropylcellulose) (HPC)) is reported as 92 % of control. The T/C (endpoint: mean survival time, dose: 500.0 mg/kg/injection, schedule: Q01DX001 (ip), vehicle: Klucel (hydroxypropylcellulose) (HPC)) was 102 % of control.
With c1cc2n(n1)CCN2 the T/C (endpoint: mean survival time, dose: 8.0 mg/kg/injection, schedule: Q03HX008 (ip), vehicle: saline) was 95 % of control, the T/C (endpoint: mean survival time, dose: 8.0 mg/kg/injection, schedule: Q03HX016 (ip), vehicle: saline) was 96 % of control and the T/C (endpoint: mean survival time, dose: 8.0 mg/kg/injection, schedule: Q03HX024 (ip), vehicle: saline) was 102 % of control. For the same compound, the T/C (endpoint: mean survival time, dose: 16.0 mg/kg/injection, schedule: Q03HX008 (ip), vehicle: saline) was 98 % of control, the T/C (endpoint: mean survival time, dose: 16.0 mg/kg/injection, schedule: Q03HX016 (ip), vehicle: saline) was 97 % of control and the T/C (endpoint: mean survival time, dose: 16.0 mg/kg/injection, schedule: Q03HX024 (ip), vehicle: saline) was 104 % of control. For the same compound, the T/C [6] was 103 % of control, the T/C (endpoint: mean survival time, dose: 32.0 mg/kg/injection, schedule: Q01DX005 (ip), vehicle: saline) was 100 % of control and the T/C (endpoint: mean survival time, dose: 32.0 mg/kg/injection, schedule: Q03HX008 (ip), vehicle: saline) was 102 % of control. For the same compound, the T/C (endpoint: mean survival time, dose: 32.0 mg/kg/injection, schedule: Q03HX016 (ip), vehicle: saline) was 98 % of control, the T/C (endpoint: mean survival time, dose: 32.0 mg/kg/injection, schedule: Q03HX024 (ip), vehicle: saline) was 107 % of control and the T/C (endpoint: mean survival time, dose: 50.0 mg/kg/injection, schedule: Q04DX003 (ip), vehicle: saline) was 98 % of control. The T/C (endpoint: mean survival time, dose: 50.0 mg/kg/injection, schedule: Q04DX003 (iv), vehicle: saline) was 98 % of control, the T/C (endpoint: mean survival time, dose: 64.0 mg/kg/injection, schedule: Q01DX005 (ip), vehicle: saline) was 103 % of control and the T/C (endpoint: mean survival time, dose: 64.0 mg/kg/injection, schedule: Q01DX009 (ip), vehicle: saline) was 97 % of control. For the same compound, the T/C (endpoint: mean survival time, dose: 64.0 mg/kg/injection, schedule: Q03HX008 (ip), vehicle: saline) was 109 % of control, the T/C (endpoint: mean survival time, dose: 64.0 mg/kg/injection, schedule: Q03HX016 (ip), vehicle: saline) was 102 % of control and the T/C (endpoint: mean survival time, dose: 64.0 mg/kg/injection, schedule: Q03HX024 (ip), vehicle: saline) was 116 % of control. The T/C [4] was 120 % of control, the T/C [7] was 102 % of control and the T/C (endpoint: mean survival time, dose: 100.0 mg/kg/injection, schedule: Q04DX003 (ip), vehicle: water) was 120 % of control and 105 % of control. The T/C (endpoint: mean survival time, dose: 100.0 mg/kg/injection, schedule: Q04DX003 (iv), vehicle: saline) was 98 % of control, the T/C (endpoint: mean survival time, dose: 128.0 mg/kg/injection, schedule: Q01DX001 (ip), vehicle: saline) was 104 % of control and the T/C (endpoint: mean survival time, dose: 128.0 mg/kg/injection, schedule: Q01DX005 (ip), vehicle: saline) was 114 % of control. The T/C (endpoint: mean survival time, dose: 128.0 mg/kg/injection, schedule: Q01DX009 (ip), vehicle: saline) was 122 % of control, the T/C (endpoint: mean survival time, dose: 128.0 mg/kg/injection, schedule: Q04DX003 (ip), vehicle: saline) was 105 % of control and the T/C (endpoint: mean survival time, dose: 128.0 mg/kg/injection, schedule: Q08DX002 (ip), vehicle: saline) was 104 % of control. The T/C [5] was 118 % of control, the T/C (endpoint: mean survival time, dose: 200.0 mg/kg/injection, schedule: Q04DX003 (ip), vehicle: saline) was 108 % of control and the T/C (endpoint: mean survival time, dose: 200.0 mg/kg/injection, schedule: Q04DX003 (ip), vehicle: water) was 115 % of control and 120 % of control. The T/C (endpoint: mean survival time, dose: 200.0 mg/kg/injection, schedule: Q04DX003 (iv), vehicle: saline) was 101 % of control, the T/C (endpoint: mean survival time, dose: 256.0 mg/kg/injection, schedule: Q01DX001 (ip), vehicle: saline) was 110 % of control and the T/C (endpoint: mean survival time, dose: 256.0 mg/kg/injection, schedule: Q01DX005 (ip), vehicle: saline) was 107 % of control. The T/C (endpoint: mean survival time, dose: 256.0 mg/kg/injection, schedule: Q01DX009 (ip), vehicle: saline) was 100 % of control, the T/C (endpoint: mean survival time, dose: 256.0 mg/kg/injection, schedule: Q08DX002 (ip), vehicle: saline) was 106 % of control and the T/C (endpoint: mean survival time, dose: 400.0 mg/kg/injection, schedule: Q04DX003 (ip), vehicle: saline) was 124 % of control. For the same compound, the T/C (endpoint: mean survival time, dose: 400.0 mg/kg/injection, schedule: Q04DX003 (ip), vehicle: water) was 153 % of control, the T/C (endpoint: mean survival time, dose: 512.0 mg/kg/injection, schedule: Q04DX003 (ip), vehicle: saline) was 159 % of control and the T/C (endpoint: mean survival time, dose: 512.0 mg/kg/injection, schedule: Q08DX002 (ip), vehicle: saline) was 165 % of control. The T/C (endpoint: mean survival time, dose: 600.0 mg/kg/injection, schedule: Q04DX003 (ip), vehicle: water) was 101 % of control.
